Laboratory results taken from patent publication US11932658B2 (BRISTOL-MYERS SQUIBB COMPANY, priority 2016, dated 2024).

Each compound was assayed against T1, PAR4 (Homo sapiens, UniProt Q96RI0) (assay: PAR4 FLIPR assay (antagonism of agonist peptide-induced calcium mobilization)).
T1 construct: expressed in transfected cells; host or cells: HEK293 PAR4 Clone 1.2A (BMS Arctic ID 383940)
T1 sequence (Q96RI0 18-385): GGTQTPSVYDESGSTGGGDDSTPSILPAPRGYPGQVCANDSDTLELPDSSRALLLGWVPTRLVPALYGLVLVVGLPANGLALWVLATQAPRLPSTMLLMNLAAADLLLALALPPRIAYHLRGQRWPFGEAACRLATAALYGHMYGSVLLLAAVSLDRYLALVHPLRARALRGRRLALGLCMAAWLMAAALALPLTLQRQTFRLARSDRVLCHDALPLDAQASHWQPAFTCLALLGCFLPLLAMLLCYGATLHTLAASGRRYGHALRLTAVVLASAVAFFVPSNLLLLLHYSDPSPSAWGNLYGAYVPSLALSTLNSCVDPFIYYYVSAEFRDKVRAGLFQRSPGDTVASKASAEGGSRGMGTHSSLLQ
Type: cell-based
Text: The FLIPR assay is an exemplary in vitro assay for measuring the activity of the PAR4 antagonists of the present invention. In this assay, intracellular calcium mobilization is induced in PAR4 expressing cells by a PAR4 agonist and calcium mobilization is monitored.
HEK293 cells stably expressing PAR4 were generated by a standard method of transfection of human PAR4 (F2R23) cDNA expression vector and selected based on PAR4 protein expression or mRNA expression. […] These cells also express endogenous PAR1 and can elicit calcium signal upon stimulation with PAR1 agonist peptide. Therefore, the same cells were also used to determine selectivity against PAR1 and agonist activity for both receptors. Cells from HEK293 PAR4 Clone 1.2A (BMS Arctic ID 383940) were propagated and used for calcium mobilization studies.
FLIPR-based calcium mobilization assay in HEK293 cells was used to measure PAR4 antagonism, agonism, and selectivity against PAR1. The activity of the PAR4 antagonists of the present invention were tested in PAR4 expressing cells by monitoring H-Ala-Phe(4-F)-Pro-Gly-Trp-Leu-Val-Lys-Asn-Gy-NH2-induced intracellular calcium mobilization. Counter screens for agonist activity and PAR1 antagonist activity were also performed. Briefly, PAR1/PAR4-expressing HEK293 cells were grown in DMEM (Life Technology, Grand Island, NY) containing 10% heat-inactivated FBS, 1% Penicillin-Streptomycin, 10 μg/mL blasticidin, and 100 μg/mL Zeocin at 37° C. with 5% CO2. Cells were plated overnight prior to the experiment in a black 384-well Purecoat Amine clear bottom plate (Becton Dickinson Biosciences, San Jose, CA) at 10,000 cells/well in 30 μL growth medium and incubated in a humidified chamber at 37° C. with 5% CO2 overnight. Prior to compound addition, the cell medium was replaced with 40 μL of 1× calcium and magnesium-containing Hank's Balanced Saline Solution (HBSS) (with 20 mM HEPES) and 1:1000 diluted fluorescent calcium indicator (Codex Biosolutions, Gaithersburg, MD). After a 30 minute incubation period at 37° C. and a further 30 minute incubation and equilibration period at room temperature, 20 μL test compound (diluted in 1×HBSS buffer) was added at various concentrations at 0.17% dimethyl sulfoxide (DMSO) final concentration. Changes in fluorescence intensity were measured using a Functional Drug Screening System (FDSS, Hamamatsu, Japan) to determine agonist activities. The cells were then incubated for 30 minutes at room temperature followed by addition of 20 μL of agonist peptide for antagonist activity measurement. […] Compound potency was derived from 11-point concentration-response curves.

`COc1cnc2c(-c3nc4ccc5c(c4s3)C[C@@H](C(C)O)O5)cc(C)cc2n1` (mixture of isomers) [Example 190] was tested. Which IC50 did it give?
Its IC50 is 24 nM.

`COc1cnc2c(-c3nc4cc(F)c5c(c4s3)[C@H](C)[C@H](CO)O5)cc(C)cc2n1` (relative stereo) [Example 199] was tested. Which IC50 did it give?
Its IC50 is 71 nM.

`COc1ccc(NC(=O)OC[C@@H]2COc3c(cc(Cl)c4nc(-c5cc(C)cc6nc(OC)cnc56)sc34)O2)cn1` (single isomer, unassigned) [Example 2] was tested. Which IC50 did it give?
The IC50 was 130 nM.

`COc1ccc(NC(=O)OC[C@H]2COc3c(cc(C)c4nc(-c5cc(C)cc6nc(OC)cnc56)sc34)O2)cn1` (single isomer, unassigned) [Example 4] was tested. Which IC50 did it give?
Its IC50 is 0.8 nM.

Which IC50 does the source give for `COc1cnc2c(-c3nc4c(C)cc5c(c4s3)OC[C@H](COC(=O)Nc3cccnc3)O5)cc(C)cc2n1` (single isomer, unassigned) [Example 5] here?
Its IC50 is 1.8 nM.

Which IC50 does the source give for `COc1cnc2c(-c3nc4c(Cl)cc5c(c4s3)C[C@H](COC(=O)Nc3ccc(C)nc3)O5)cc(C)cc2n1` (single isomer, unassigned) [Example 20] here?
Its IC50 is 3.2 nM.

With `COc1cnc2c(-c3nc4c(Cl)cc5c(c4s3)C[C@@H](COC(=O)Nc3ccc(C)nc3)O5)cc(C)cc2n1` (single isomer, unassigned) [Example 147] as the compound, how does the IC50 read?
The IC50 was 14 nM.

For `COc1cnc2c(-c3nc4ccc5c(c4s3)C[C@@](C)(CO)O5)cc(C)cc2n1` (single isomer, unassigned) [Example 187], which IC50 is on record?
Its IC50 is 1.7 nM.

For `COc1cnc2c(-c3nc4ccc5c(c4s3)C[C@](C)(CO)O5)cc(C)cc2n1` (single isomer, unassigned) [Example 188], which IC50 is on record?
The IC50 was 130 nM.

For `COc1cnc2c(-c3nc4cc(F)c5c(c4s3)[C@@H](C)[C@H](CO)O5)cc(C)cc2n1` (single isomer, unassigned) [Example 201], which IC50 is on record?
The IC50 was 7.8 nM.

For `COc1cnc2c(-c3nc4cc(F)c5c(c4s3)C(C)(C)[C@H](CO)O5)cc(C)cc2n1` (single isomer, unassigned) [Example 206], which IC50 is on record?
Its IC50 is 370 nM.

Which IC50 does the source give for `COc1cnc2c(-c3nc4ccc5c(c4s3)C[C@@H]([C@@H](C)O)O5)cc(C)cc2n1` (single isomer, unassigned) [Example 243] here?
The IC50 was 9.7 nM.

Which IC50 does the source give for `COc1cnc2c(-c3nc4c(C(O)C5(C(F)(F)F)CCC5)cc5c(c4s3)OCCO5)cc(C)cc2n1` (single isomer, unassigned) [Example 265, (2-(2-methoxy-7-methylquinoxalin-5-yl)-7,8-dihydro-[1,4]dioxino[2′,3′:3,4]benzo[1,2-d]thiazol-4-yl)(1-(trifluoromethyl)cyclobutyl)methanol] here?
Its IC50 is 1.9 nM.

How did the IC50 turn out when `COc1cnc2c(-c3nc4c(C(O)C(C)(C)C)cc5c(c4s3)OCCO5)cc(Cl)cc2c1` (single isomer, unassigned) [Example 274, 1-(2-(6-chloro-3-methoxyquinolin-8-yl)-7,8-dihydro-[1,4]dioxino[2′,3′:3,4]benzo[1,2-d]thiazol-4-yl)-2,2-dimethylpropan-1-ol] was run?
The IC50 was 5 nM.

How did the IC50 turn out when `COc1cnc2c(-c3nc4c(C(O)C(C)(C)C)cc5c(c4s3)OCCO5)cc(C)cc2n1` (single isomer, unassigned) [Example 277, 1-(2-(2-methoxy-7-methylquinoxalin-5-yl)-7,8-dihydro-[1,4]dioxino[2′,3′:3,4]benzo[1,2-d]thiazol-4-yl)-2,2-dimethylpropan-1-ol] was run?
The IC50 was 2.3 nM.

How did the IC50 turn out when `COc1ccc(NC(=O)OC[C@H]2COc3c(cc(Cl)c4nc(-c5cc(C)cc6nc(OC)cnc56)sc34)O2)cn1` [Example 1, (R)-(4-chloro-2-(2-methoxy-7-methylquinoxalin-5-yl)-7,8-dihydro-[1,4]dioxino[2′,3′:3,4]benzo[1,2-d]thiazol-7-yl)methyl (6-methoxypyridin-3-yl)carbamate] was run?
The IC50 was 1.6 nM.

For `COc1cnc2c(-c3nc4c(C)cc5c(c4s3)OCC(COC(=O)Nc3ccnc(O)c3)O5)cc(C)cc2n1` (stereo not shown) [Example 3, (2-(2-methoxy-7-methylquinoxalin-5-yl)-4-methyl-7,8-dihydro-[1,4]dioxino[2′,3′:3,4]benzo[1,2-d]thiazol-7-yl)methyl (2-hydroxypyridin-4-yl)carbamate], which IC50 is on record?
Its IC50 is 12 nM.

With `COc1cnc2c(-c3nc4c(C)cc5c(c4s3)OCC(COC(=O)Oc3cccnc3)O5)cc(C)cc2n1` (stereo not shown) [Example 6, (2-(2-methoxy-7-methylquinoxalin-5-yl)-4-methyl-7,8-dihydro-[1,4]dioxino[2′,3′:3,4]benzo[1,2-d]thiazol-7-yl)methyl pyridin-3-yl carbonate] as the compound, how does the IC50 read?
Its IC50 is 10 nM.

With `COc1cnc2c(-c3cc4c5c(cc(Cl)c4o3)O[C@@H](COC(=O)Nc3ccc(C)nc3)CO5)cc(C)cc2n1` [Example 7, (R)-(6-chloro-8-(2-methoxy-7-methylquinoxalin-5-yl)-2,3-dihydro-[1,4]dioxino[2,3-e]benzofuran-3-yl)methyl (6-methylpyridin-3-yl)carbamate] as the compound, how does the IC50 read?
Its IC50 is 1 nM.

`COc1cnc2c(-c3cc4c5c(cc(Cl)c4o3)O[C@@H](COC(=O)Nc3ccnc(C)c3)CO5)cc(C)cc2n1` [Example 8, (R)-(6-chloro-8-(2-methoxy-7-methylquinoxalin-5-yl)-2,3-dihydro-[1,4]dioxino[2,3-e]benzofuran-3-yl)methyl (2-methylpyridin-4-yl)carbamate] was tested. Which IC50 did it give?
Its IC50 is 1.4 nM.

For `COc1ccc(NC(=O)OC[C@H]2COc3c(cc(Cl)c4oc(-c5cc(C)cc6nc(OC)cnc56)cc34)O2)cn1` [Example 9, (R)-(6-chloro-8-(2-methoxy-7-methylquinoxalin-5-yl)-2,3-dihydro-[1,4]dioxino[2,3-e]benzofuran-3-yl)methyl (6-methoxypyridin-3-yl)carbamate], which IC50 is on record?
The IC50 was 1.8 nM.

For `COc1cnc2c(-c3cc4c5c(cc(Cl)c4o3)O[C@@H](COC(=O)Nc3cccnc3)CO5)cc(C)cc2n1` [Example 10, (R)-(6-chloro-8-(2-methoxy-7-methylquinoxalin-5-yl)-2,3-dihydro-[1,4]dioxino[2,3-e]benzofuran-3-yl)methyl pyridin-3-ylcarbamate], which IC50 is on record?
The IC50 was 8.5 nM.

`COc1cnc2c(-c3cc4c5c(ccc4o3)O[C@@H](COC(=O)Nc3ccc(C)nc3)CO5)cc(C)cc2n1` [Example 11, (R)-(8-(2-methoxy-7-methylquinoxalin-5-yl)-2,3-dihydro-[1,4]dioxino[2,3-e]benzofuran-3-yl)methyl (6-methylpyridin-3-yl)carbamate] was tested. Which IC50 did it give?
The IC50 was 1.3 nM.

Which IC50 does the source give for `COc1cnc2c(-c3cc4c5c(ccc4o3)O[C@@H](COC(=O)Nc3ccnc(C)c3)CO5)cc(C)cc2n1` [Example 12, (R)-(8-(2-methoxy-7-methylquinoxalin-5-yl)-2,3-dihydro-[1,4]dioxino[2,3-e]benzofuran-3-yl)methyl (2-methylpyridin-4-yl)carbamate] here?
The IC50 was 3.8 nM.

How did the IC50 turn out when `COc1ccc(NC(=O)OC[C@H]2COc3c(ccc4oc(-c5cc(C)cc6nc(OC)cnc56)cc34)O2)cn1` [Example 13, (R)-(8-(2-methoxy-7-methylquinoxalin-5-yl)-2,3-dihydro-[1,4]dioxino[2,3-e]benzofuran-3-yl)methyl (6-methoxypyridin-3-yl)carbamate] was run?
Its IC50 is 1.2 nM.

`COc1cnc2c(-c3cc4c5c(cc(C)c4o3)O[C@@H](COC(=O)Nc3ccc(C)nc3)CO5)cc(C)cc2n1` [Example 14, (R)-(8-(2-methoxy-7-methylquinoxalin-5-yl)-6-methyl-2,3-dihydro-[1,4]dioxino[2,3-e]benzofuran-3-yl)methyl (6-methylpyridin-3-yl)carbamate] was tested. Which IC50 did it give?
Its IC50 is 2.9 nM.

How did the IC50 turn out when `COc1cnc2c(-c3cc4c5c(cc(C)c4o3)O[C@@H](COC(=O)Nc3ccnc(C)c3)CO5)cc(C)cc2n1` [Example 15, (R)-(8-(2-methoxy-7-methylquinoxalin-5-yl)-6-methyl-2,3-dihydro-[1,4]dioxino[2,3-e]benzofuran-3-yl)methyl (2-methylpyridin-4-yl)carbamate] was run?
Its IC50 is 3.2 nM.

For `COc1ccc(NC(=O)OC[C@H]2COc3c(cc(C)c4oc(-c5cc(C)cc6nc(OC)cnc56)cc34)O2)cn1` [Example 16, (R)-(8-(2-methoxy-7-methylquinoxalin-5-yl)-6-methyl-2,3-dihydro-[1,4]dioxino[2,3-e]benzofuran-3-yl)methyl (6-methoxypyridin-3-yl)carbamate], which IC50 is on record?
Its IC50 is 3 nM.
